Data published in BindingDB's records for doi:10.1016/j.bmcl.2003.10.007 (Inotek Pharmaceuticals, 2003).
Where a name gives a salt, the structure may show the parent alone.

Experiment: Tested for inhibition of poly(ADP-ribose) polymerase-1 (PARP-1) in mouse using Cell protection assay

Row | Compound | IC50 [µM]
1 | Nc1ncnc2c1ncn2C1O[C@H](CNC(=O)CCC(=O)Nc2cccc3c2CNC3=O)[C@@H](O)[C@H]1O (stereo not given in full) | 0.1
2 | CNc1ncnc2c1ncn2CC(=O)Nc1cccc2c1CNC2=O [2-(6-Methylamino-purin-9-yl)-N-(1-oxo-2,3-dihydro-1H-isoindol-4-yl)-acetamide] | 3
3 | Nc1ncnc2c1ncn2C1O[C@H](CNC(=O)CCCCCCC(=O)Nc2cccc3c2CNC3=O)[C@@H](O)[C@H]1O (stereo not given in full) | 0.7
4 | Nc1ncnc2c1ncn2C1O[C@H](CNC(=O)CCCCCCCC(=O)Nc2cccc3c2CNC3=O)[C@@H](O)[C@H]1O (stereo not given in full) | 2
5 | Nc1ncnc2c1ncn2[C@@H]1O[C@H](C(=O)N2CCN(CC(=O)Nc3cccc4c3CNC4=O)CC2)[C@@H](O)[C@H]1O [2-(4-((2S,3S,4R,5R)-5-(6-amino-9H-purin-9-yl)-3,4-dihydroxytetrahydrofuran-2-carbonyl)piperazin-1-yl)-N-(1-oxoisoindolin-4-yl)acetamide] | 0.045
6 | CN1CCN(CC(=O)Nc2cccc3c2CNC3=O)CC1 [2-(4-Methyl-piperazin-1-yl)-N-(1-oxo-2,3-dihydro-1H-isoindol-4-yl)-acetamide] | > 30
7 | Nc1ncnc2c1ncn2C1O[C@H](CNC(=O)/C=C/c2ccc(C(=O)Nc3cccc4c3CNC4=O)cc2)[C@@H](O)[C@H]1O (stereo not given in full) | 10
8 | Nc1ncnc2c1ncn2C1O[C@H](CNC(=O)CCCCCC(=O)Nc2cccc3c2CNC3=O)[C@@H](O)[C@H]1O (stereo not given in full) | 3
9 | Nc1ncnc2c1ncn2C1O[C@H](CNC(=O)CC(=O)Nc2cccc3c2CNC3=O)[C@@H](O)[C@H]1O (stereo not given in full) | 1.9
10 | Nc1ncnc2c1ncn2C1O[C@H](C(=O)N2CCNCC2)[C@@H](O)[C@H]1O (stereo not given in full) | > 300
11 | O=C(CCCCCCC(=O)Nc1cccc2c1CNC2=O)NC[C@H]1OC(n2cnc3c(=O)[nH]cnc32)[C@H](O)[C@@H]1O (stereo not given in full) | 68

Other lines, results leading:

Row | IC50 [µM] | Compound
12 | 30 | Nc1cccc2c1CNC2=O [4-Amino-2,3-dihydro-isoindol-1-one]
13 | 5 | Nc1ncnc2c1ncn2C1OC(CNC(=O)CCC(=O)Nc2cccc(-c3ccccc3)c2)[C@@H](O)[C@H]1O (stereo partly drawn) [N-[(3S,4R)-5-(6-Amino-purin-9-yl)-3,4-dihydroxy-tetrahydro-furan-2-ylmethyl]-N'-biphenyl-3-yl-succinamide]
14 | 30 | O=C1N=Cc2ccccc21 [Isoindol-1-one]
15 | > 30 | CN1CCN(CCC(=O)Nc2cccc3c2CNC3=O)CC1 [3-(4-Methyl-piperazin-1-yl)-N-(1-oxo-2,3-dihydro-1H-isoindol-4-yl)-propionamide]
16 | 18 | O=C(CN1CCNCC1)Nc1cccc2c1CNC2=O [N-(1-Oxo-2,3-dihydro-1H-isoindol-4-yl)-2-piperazin-1-yl-acetamide; hydrochloride]
17 | 18 | CCNCC(=O)Nc1cccc2c1CNC2=O [2-Ethylamino-N-(1-oxo-2,3-dihydro-1H-isoindol-4-yl)-acetamide]
18 | > 30 | O=C(CN1CCOCC1)Nc1cccc2c1CNC2=O [2-Morpholin-4-yl-N-(1-oxo-2,3-dihydro-1H-isoindol-4-yl)-acetamide]
19 | 3 | O=C(Cn1cnc2ccccc21)Nc1cccc2c1CNC2=O [2-Benzoimidazol-1-yl-N-(1-oxo-2,3-dihydro-1H-isoindol-4-yl)-acetamide]
20 | > 30 | CNCC(=O)Nc1cccc2c1CNC2=O [2-Methylamino-N-(1-oxo-2,3-dihydro-1H-isoindol-4-yl)-acetamide]
